# Laboratory results published in US12180226B2, “Spirotricycle RIPK1 inhibitors and methods of uses thereof” (Merck Sharp & Dohme LLC, priority 2021, dated 2024).
# Structures can show the parent of a compound that is named as a salt.
# Target: RIPK1 (recombinant GST-RIPK1 kinase domain, residues 1-327) (Homo sapiens (Human), UniProt Q13546)
# Assay: RIPK1-ADP-Glo Enzymatic Assay
# Format: biochemical
# Details: ADP-Glo; 25 nM GST-RIPK1, 300 μM ATP; assay lower limit ~25 nM; read-out: RIPK1 V0 Ec50
# Method in brief: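 Inhibition of ADP formation was measured after compound and enzyme (25 nM) were pre-incubated for 30 minutes at ambient temperature and the kinase reaction ran for 150 minutes at 300 μM ATP with dephosphorylated MBP substrate. EC50 values come from ten-point curves fitted non-linearly.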
# Chain of RIPK1 (recombinant GST-RIPK1 kinase domain, residues 1-327) (Q13546 1-327): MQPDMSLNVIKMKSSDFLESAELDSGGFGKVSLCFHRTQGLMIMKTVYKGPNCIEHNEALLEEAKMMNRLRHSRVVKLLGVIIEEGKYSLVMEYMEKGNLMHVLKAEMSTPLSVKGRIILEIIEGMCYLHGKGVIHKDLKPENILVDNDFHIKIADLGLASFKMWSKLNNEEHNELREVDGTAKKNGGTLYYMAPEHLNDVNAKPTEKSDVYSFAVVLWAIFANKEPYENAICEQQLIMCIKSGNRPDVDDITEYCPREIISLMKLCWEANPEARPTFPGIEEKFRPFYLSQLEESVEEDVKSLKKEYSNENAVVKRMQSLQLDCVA
row,EC50 [nM],SMILES
1,35.4,"O=C(c1ncc(F)cc1F)N1CCC2(CC1)O[C@@H]1CC[C@@H](c3cc(F)cc(F)c3)N1C2=O [Example 6.89, (5′S,7a′R)-5′-(3,5-difluorophenyl)-1-(3,5-difluoropyridine-2-carbonyl)tetrahydro-3′H-spiro[piperidine-4,2′-pyrrolo[2,1-b] [1,3]oxazol]-3′-one]"
2,30.2,"O=C(c1nc2ccccc2s1)N1CCC2(CC1)O[C@@H]1CC[C@@H](c3cc(F)cc(F)c3)N1C2=O [Example 6.28, (5′S,7a′R)-1-(1,3-benzothiazole-2-car-bonyl)-5′-(3,5-difluoro-phenyl)tetrahydro-3′H-spiro[piperidine-4,2′-pyrrolo[2,1-b] [1,3]oxazol]-3′-one]"
3,< 25,"O=C1N2[C@@H](CC[C@H]2c2cc(F)cc(F)c2)OC12CCN(c1ccc(Br)c3ccnn13)CC2 [Example 13.6, (5′S,7a′R)-1-(4-bromopyrazolo[1,5-a]pyridin-7-yl)-5′-(3,5-difluorophenyl)tetrahydro-3′H-spiro[piperidine-4,2′-pyrrolo[2,1-b]oxazol]-3′-one, TFA salt]"
4,45.1,"O=C(c1ncccc1F)N1CCC2(CC1)O[C@@H]1CC[C@@H](c3cc(F)cc(F)c3)N1C2=O [Example 6.54, (5′S,7a'R)-5′-(3,5-difluorophenyl)-1-(3-fluoropyridine-2-carbonyl)tetrahydro-3′H-spiro[piperidine-4,2′-pyrrolo[2,1-b] [1,3]oxazol]-3-one]"
5,< 25,"Cc1cccc(C(=O)N2CCC3(CC2)O[C@@H]2CC[C@@H](c4cccc(F)c4)N2C3=O)c1F [Example 6.119, (5′S,7a′R)-1-(2-fluoro-3-methylbenzene-1-carbonyl)-5′-(3-fluoro-phenyl)tetrahydro-3′H-spiro[piperidine-4,2′-pyrrolo[2,1-b][1,3]oxazol]-3′-one]"
6,321,O=C(c1nc2ncccc2s1)N1CCC2(CC1)O[C@@H]1CC[C@@H](c3cc(F)cc(F)c3)N1C2=O [Example 6.26]
7,333,"N#Cc1ccc(C(=O)N2CCC3(CC2)O[C@@H]2CC[C@@H](c4cc(F)cc(F)c4)N2C3=O)cc1F [Example 5.19, 4-((5′S,7a′R)-5′-(3,5-difluorophenyl)-3′-oxo-tetrahydro-3′H-spiro [piperidine-4,2′-pyrrolo-[2,1-b]oxazole]-1-carbon-yl)-2-fluorobenzonitrile]"
8,< 25,"O=C1N2[C@@H](CC[C@H]2c2ccccc2)OC12CCN(c1ncc(-c3cocn3)cc1F)CC2 [Example 21.6, (5′S,7a′R)-1-[3-fluoro-5-(1,3-oxazol-4-yl)pyridin-2-yl]-5′-phenyltetrahydro-3′H-spiro[piperidine-4,2′-pyrrolo[2,1-b][1,3]oxazol]-3′-one]"
9,< 25,"O=C1N2[C@@H](CC[C@H]2c2ccccc2)OC12CN(c1ccc(C3CCC3)c3ccnn13)C2 [Example 18.3, (5′S,7a′R)-1-(4-cyclobutylpyrazolo[1,5-a]pyridin-7-yl)-5′-phenyltetrahydro-3′H-spiro[azetidine-3,2′-pyrrolo[2,1-b][1,3]oxazol]-3′-one]"
10,230,"CCn1nccc1C(=O)N1CCC2(CC1)O[C@@H]1CC[C@@H](c3cc(F)cc(F)c3)N1C2=O [Example 6.37, (5′S,7a′R)-5′-(3,5-difluorophenyl)-1-(1-ethyl-1H-pyrazole-5-carbonyl)tetrahydro-3′H-spiro[piperidine-4,2′-pyrrolo[2,1-b] [1,3]oxazol]-3′-one]"
11,< 25,"N#Cc1cc(C(=O)N2CCC3(CC2)O[C@@H]2CC[C@@H](c4cc(F)cc(F)c4)N2C3=O)ccc1F [Example 5.14, 5-((5′S,7a′R)-5′-(3,5-difluorophenyl)-3′-oxo-tetrahydro-3′H-spiro [piperidine-4,2′-pyrrolo-[2,1-b]oxazole]-1-carbon-yl)-2-fluorobenzonitrile]"
12,30,"O=C(c1ccc(F)cn1)N1CCC2(CC1)O[C@@H]1CC[C@@H](c3cc(F)cc(F)c3)N1C2=O [Example 6.14, (5′S,7a′R)-5′-(3,5-difluorophenyl)-1-(5-fluoropyridine-2-carbonyl)tetrahydro-3′H-spiro[piperidine-4,2′-pyrrolo[2,1-b] [1,3]oxazol]-3′-one]"
13,342,"O=C(c1ccccc1)N1CCC2(CC1)O[C@@H]1CC[C@@H](c3cnc4c(c3)CCC4)N1C2=O [Example 17.12, (5′S,7a′R)-1-benzoyl-5′-(6,7-dihydro-5H-cyclopenta[b]pyridin-3-yl)tetrahydro-3′H-spiro[piperidine-4,2′-pyrrolo[2,1-b]oxazol]-3′-one]"
14,< 25,"O=C1N2[C@@H](CC[C@H]2c2cc(F)cc(F)c2)OC12CCN(c1nccn3nccc13)CC2 [Example 13.12, (5′S,7a′R)-5′-(3,5-difluorophenyl)-1-(pyrazolo[1,5-a]pyrazin-4-yl)tetrahydro-3′H-spiro[piperidine-4,2′-pyrrolo[2,1-b]oxazol]-3′-one, TFA salt]"
15,211,"O=C(c1cnc2snnc2c1)N1CCC2(CC1)O[C@@H]1CC[C@@H](c3cc(F)cc(F)c3)N1C2=O [Example 6.46, (5′S,7a′R)-5′-(3,5-difluorophenyl)-1-([1,2,3]thiadiazolo-[5,4-b]pyridine-6-carbonyl)tetrahydro-3′H-spiro[piperidine-4,2′-pyrrolo[2,1-b] [1,3]oxazol]-3′-one]"

# The remaining lines, values behind:
row,SMILES,EC50 [nM]
1,"Cc1nnc(N2CC3(C2)O[C@@H]2CC[C@@H](c4ccccc4F)N2C3=O)o1 [Example 4.273, (5′S,7a′R)-5′-(2-fluorophenyl)-1-(5-methyl-1,3,4-oxadiazol-2-yl)tetrahydro-3′H-spiro[azetidine-3,2′-pyrrolo[2,1-b] [1,3]oxazol]-3′-one]",566
2,"O=C1N2[C@@H](CC[C@H]2c2ccccc2)OC12CCN(c1ncnn3ccnc13)CC2 [Example 4.227, (5′S,7a′R)-1-(imidazo[2,1-f] [1,2,4]triazin-4-yl)-5′-phenyltetrahydro-3′H-spiro[piperidine-4,2′-pyrrolo[2,1-b] [1,3]oxazol]-3′-one]",27.3
3,"O=C1N2[C@@H](CC[C@H]2c2cncc(F)c2)OC12CCN(c1ccnc3c(F)cnn13)CC2 [Example 4.49, (5′S,7a′R)-1-(3-fluoropyrazolo[1,5-a]pyrimidin-7-yl)-5′-(5-fluoropyridin-3-yl)tetrahydro-3′H-spiro[piperidine-4,2′-pyrrolo[2,1-b] [1,3]oxazol]-3′-one]",< 25
4,"O=C1N2[C@@H](CC[C@H]2c2ccccc2)OC12CCN(c1cc(-n3ccnc3)ncn1)CC2 [Example 4.171, (5′S,7a′R)-1-[6-(1H-imidazol-1-yl)pyrimidin-4-yl]-5′-phenyltetrahydro-3′H-spiro[piperidine-4,2′-pyrrolo[2,1-b] [1,3]oxazol]-3′-one]",< 25
5,"Cc1cc(N2CCC3(CC2)O[C@@H]2CC[C@@H](c4ccccc4)N2C3=O)ncc1[N+](=O)[O-] [Example 4.207, (5′S,7a′R)-1-(4-methyl-5-nitropyridin-2-yl)-5′-phenyltetrahydro-3′H-spiro[piperidine-4,2′-pyrrolo[2,1-b] [1,3]oxazol]-3′-one]",< 25
6,"N#Cc1ccc(N2CCC3(CC2)O[C@@H]2CC[C@@H](c4cc(F)cc(F)c4)N2C3=O)c(F)c1 [Example 4.24, 4-[(5′S,7a′R)-5′-(3,5-difluorophenyl)-3′-oxotetrahydro-1H,3′H-spiro[piperidine-4,2′-pyrrolo[2,1-b] [1,3]oxazol]-1-yl]-3-fluorobenzonitrile]",< 25
7,"O=C1N2[C@@H](CC[C@H]2c2ccccc2)OC12CCN(c1ccnc3ccnn13)CC2 [Example 4.28, (5′S,7a′R)-5′-phenyl-1-(pyrazolo[1,5-a]pyrimidin-7-yl)tetrahydro-3′H-spiro[piperidine-4,2′-pyrrolo[2,1-b] [1,3]oxazol]-3′-one]",< 25
8,"O=C1N2[C@@H](CC[C@H]2C2CCCC2)OC12CCN(c1ccnc3c(F)cnn13)CC2 [Example 4.88, (5′S,7a′R)-5′-cyclopentyl-1-(3-fluoropyrazolo [1,5-a]pyrimidin-7-yl)tetrahydro-3′H-spiro[piperidine-4,2′-pyrrolo[2,1-b]oxazol]-3′-one, TFA salt]",< 25
9,"CCOC(=O)c1cc(N2CCC3(CC2)O[C@@H]2CC[C@@H](c4ccccc4)N2C3=O)ncn1 [Example 4.23, ethyl 6-[(5′S,7a′R)-3′-oxo-5′-phenyltetrahydro-1H,3′H-spiro[piperidine-4,2′-pyrrolo[2,1-b] [1,3]oxazol]-1-yl]pyrimidine-4-carboxylate]",52.8
10,"Cc1nccnc1[C@@H]1CC[C@H]2OC3(CCN(c4ccnc5c(F)cnn45)CC3)C(=O)N21 [Example 4.144, (5′S,7a′R)-1-(3-fluoropyrazolo[1,5-a]pyrimidin-7-yl)-5′-(3-methylpyrazin-2-yl)tetrahydro-3′H-spiro[piperidine-4,2′-pyrrolo[2,1-b] [1,3]oxazol]-3′-one]",41.7
11,"O=C1N2[C@@H](CC[C@H]2c2ccccc2)OC12CCN(c1ncnc3ccnn13)CC2F (single isomer, unassigned) [Example 4.98, (3[S or R],4[R or S], 5′S,7a′R)-3-fluoro-5′-phenyl-1-(pyrazolo [1,5-a][1,3,5]triazin-4-yl)tetrahydro-3′H-spiro[piperidine-4,2′-pyrrolo[2,1-b]oxazol]-3′-one]",36.3
12,"O=C(c1ccccc1F)N1CCC2(CC1)O[C@@H]1CC[C@@H](c3cc(F)cc(F)c3)N1C2=O [Example 1.9, (5′S,7a′R)-5′-(3,5-difluorophenyl)-1-(2-fluorobenzene-1-carbonyl)tetrahydro-3′H-spiro[piperidine-4,2′-pyrrolo[2,1-b] [1,3]oxazol]-3′-one]",< 25

# Same assay, conditions: RIPK1 V0 Ec50, ADP-Glo; 25 nM GST-RIPK1, 300 μM ATP; assay lower limit ~25 nM
row,SMILES,EC50 [nM]
1,"N#Cc1ccc(N2CCC3(CC2)O[C@@H]2CC[C@@H](c4cc(F)cc(F)c4)N2C3=O)cc1Cl [Example 4.20, 2-chloro-4-[(5′S,7a′R)-5′-(3,5-difluorophenyl)-3′-oxotetrahydro-1H,3′H-spiro[piperidine-4,2′-pyrrolo[2,1-b] [1,3]oxazol]-1-yl]benzonitrile]",< 25
